Results: patent US20110236406A1, “IMMUNOGENIC COMPOSITIONS COMPRISING HMGB1 POLYPEPTIDES” (MedImmune, LLC, priority 2004, published 2011)
Entries after “also recorded” stand apart in the source; their conditions may differ. No end group written: not given here. *: point of attachment. Biotin = O=C1N[C@H]2[C@H](CS[C@H]2CCCCC(=O)*)N1

Legend:
[1] = tested on: human monocyte-derived DCs; assay: Cytokine and chemokine secretion by human immature monocyte-derived DCs (ELISA); type: cell-based; parameters: key to TNFα / IL-18 / IL-8 / IL-10 / IL-6 / IL-12: + indicates increase; − indicates no change compared to medium; conditions: for secretion of IL-6 / secretion of IL-8 / secretion of IL-12 (p70) / secretion of IL-18 / secretion of TNF-α: Example 2, peptides 200 μg/ml, HMGB1-Bx 50 μg/ml, polymyxin B, 48 h; for secretion of IL-6: FIG. 8A, 8B; for secretion of IL-8 / secretion of IL-12 (p70) / secretion of IL-18 / secretion of TNF-α: FIG. 8C; for IL-6 / IL-8 / IL-10 / IL-12 / IL-18 / TNFα: HUMAN DC, ELISA 48 h after exposure, compared to medium
Experimental: (§1) PBMCs were isolated from the blood of normal volunteers (Long Island Blood Services, Melville, N.Y.) over a Ficoll-Hypaque (Amersham Biosciences, Uppsala, Sweden) density gradient. CD14^+ monocytes were isolated from PBMCs by positive selection using anti-CD14 beads (Miltenyi Biotech., Auburn, Calif.) following the manufacturer's instructions. To generate DCs, CD14^+ cells were cultured in RPMI 1640 medium supplemented with 2 mM L-glutamine (GIBCO-BRL Life Technologies; Grand Island, N.Y.), 50 μM 2-mercaptoethanol (Sigma, St. Louis, Mo.), 10 mM HEPES (GIBCO-BRL), penicillin (100 U/ml)-streptomycin (100 μg/ml) (GIBCO-BRL), and 5% human AB serum (Gemini Bio-Products, Woodland, Calif.). Cultures were maintained for 7 days in 6-well trays (3×10^6 cells/well) supplemented with 1000 U GM-CSF per ml (Immunex, Seattle, Wash.) and 200 U IL-4 per ml (R&D Systems; Minneapolis, Minn.) at days 0, 2, 4 and 6.
(§2) At day 7 of culture, immature DCs were either left untreated (“immature”, IM), or were stimulated with indicated doses of (i) LPS (E. coli serotype 026:B6, Sigma), (ii) 500 ng/ml of trimeric CD40L (Alexis Biochemicals; San Diego, Calif.), (iii) a cocktail of cytokines (CyC) consisting of IL-6 at 1000 U/ml, TNFα at 10 ng/ml, IL-1β at 10 ng/ml (all from R&D Systems) and prostaglandin E2 (PGE-2) at 1 μg/ml (Sigma), or with (v) non-methylated CpG oligonucleotides (5′ […] 3′) at 30 μg/ml. The sequence of this oligonucleotide is known to induce DC maturation (4), except that it contains an unmodified phosphodiester backbone. In all experiments, DCs were analyzed 48 h after stimulation. All experiments using the rB box were performed in the presence of polymyxin B sufficient to neutralize greater than 10-fold more LPS than present in rB box preparations.
(§3) 48 h post activation, the production of cytokines and chemokines in cell culture supernatants was measured by ELISA (Pierce Boston Technology Center, SearchLight™ Proteome Arrays Multiplex Sample Testing Services, Woburn, Mass.).
as §1, with “DCs, CD 14^+” for “DCs, CD14^+”
(§4) At day 7 of culture, immature DCs were either left untreated, or were stimulated with indicated doses of HMGB1-Bx, HMGB1 peptides, or LPS (E. coli serotype 026:B6, Sigma). In all experiments, DCs were analyzed 48 h after stimulation.

[2] = tested on: murine BM-DCs; assay: Cytokine and chemokine secretion by murine bone marrow-derived DCs (ELISA); type: cell-based, mouse; parameters: key to TNFα / IL-18 / IL-8 / IL-10 / IL-2 / IL-1β / IL-5 / IL-6 / IL-12: + indicates increase; − indicates no change compared to medium; conditions: for IL-1β / IL-2 / IL-5 / IL-6 / IL-8 / IL-10 / IL-12 / IL-18 / TNFα: Murine DC, ELISA 48 h after exposure, compared to medium
Experimental: (§5) Bone marrow-derived DCs (BM-DC) were generated using modifications of the original method described by Inaba et al (42). In brief, bone marrow suspensions were incubated with red cell lysis buffer (PUREGENE™ RBC Lysis Solution, Gentra Systems, Minneapolis, Minn.) to remove red blood cells. After washing in media, lymphocytes and Ia-positive cells were killed with a cocktail of mAbs and rabbit complement for 60 min at 37° C. The mAbs were GK1.5 anti-CD4, TIB211 anti-CD8, TIB 120 anti-Ia, and TM 146 anti B220 (The Abs were kindly provided by Dr. Ralph Steinman). The cells were subsequently cultured in media containing 5% FCS and 10 ng/ml recombinant mouse GM-CSF (R&D Systems; Minneapolis, Minn.) for 7 days. For some experiments the cells were further purified at day 7 using CD11c^+-microbeads (Miltenyi Biotech., Auburn, Calif.) according to the manufacturer's instructions.
as §4, §3

[3] = tested on: allogeneic T cells; assay: Mixed leukocyte reaction, stimulated murine BM-DCs with allogeneic T cells; type: cell-based, mouse; conditions: BM-DCs from C57/BL6 mice; HMGB1-Bx 50 μg/ml, peptides 200 μg/ml, 48 h; 5-day co-culture
Experimental: T cells were isolated by negative selection using the mouse SpinSep antibody cocktail from StemCell Technologies (Vancouver, Calif.) according to the manufacturer's instructions. The cell purity of the isolated T cells was routinely ˜99% pure.
To assess levels of T cell activation and proliferation, cells were plated at 10^5 cells per well in a round-bottomed 96-well tray at DC:T cell ratios of 1:120 for 5 days in medium described above. The microcultures were pulsed with (^3H)-thymidine (1 μCi/well) for the final 8 h of culture. Cell cultures were harvested onto glass fiber filters with an automated multiple sample harvester and the amount of isotope incorporation was determined by liquid scintillation β-emission. Responses are reported as mean cpm of thymidine incorporation by triplicate cultures (+/−SEM).

[4] = tested on: murine BM-DCs; assay: Phenotypic maturation of murine BM-DCs (surface markers, FACS); type: cell-based, mouse; conditions: CD11c+ gated BM-DCs, 48 h, peptides 200 μg/ml
Experimental: as §5, §4
1×10^4 DCs were reacted for at least 20 min at 4° C. in 100 μl of PBS/5% FCS/0.1% sodium azide (staining buffer) with fluorescein isothiocyanate (FITC)-conjugated IgG mAb specific for CD86, CD40 and MHC-II (eBioscience). Cells were then washed 4 times with staining buffer, fixed in 10% formaldehyde in PBS (pH 7.2-7.4) and examined by flow cytometry using a FACScan (BD). In all experiments, isotype controls were included using FITC-conjugated irrelevant mAb of the same Ig class.

[5] = tested on: immature DCs; assay: Phenotypic maturation of human DCs (surface markers, FACS); type: cell-based; conditions: 48 h, rHMGB1 0.1-10.0 μg/ml
Experimental: as §1, §2
1×10^4 DCs were reacted for at least 20 min at 4° C. in 100 μl of PBS/5% FCS/0.1% sodium azide (staining buffer) with phycoerythrin (PE)-conjugated IgG specific for CD206, CD54, HLA-DR (all from Beckton Dickinson Immunostaining Systems; San Jose. Calif.) and CD83 (Immunotech-Beckman-Coulter; Marseille, France) or fluorescein isothiocyanate (FITC)-conjugated IgG mAb specific for CD80, CD40 and CD58 (all from Beckton Dickinson Immunostaining Systems; San Jose. Calif.). Cells were then washed 4 times with staining buffer, fixed in 10% formaldehyde in PBS (pH 7.2-7.4) and examined by flow cytometry using a FACScan (BD). In all experiments, isotype controls were included using an appropriate PE- or FITC-conjugated irrelevant mAb of the same Ig class.

[6] = peptides 200 μg/ml, HMGB1-Bx 50 μg/ml, polymyxin B, 48 h
[7] = peptides 200 μg/ml, polymyxin B, 48 h

Row | Substance | secretion of IL-6 [1] | secretion of IL-12 (p70) [2, 6] | secretion of IL-8 [1] | secretion of IL-12 (p70) [1] | secretion of IL-18 [1] | secretion of TNF-α [1] | IL-6 [1] | IL-8 [1] | IL-10 [1] | IL-12 [1] | IL-18 [1] | TNFα [1] | T cell stimulatory activity of exposed BM-DCs in mixed lymphocyte reaction [3] | IL-1β [2] | IL-2 [2] | IL-5 [2] | IL-6 [2] | IL-10 [2] | IL-12 [2] | activation of murine BM-DCs ([2]; peptides 200 μg/ml, 48 h) | also measured
1 | CSEYRPKIKGEHPGLSIG [Hp-106 non-bio] | no activity | did not enhance IL-12 secretion |  |  |  |  |  |  |  |  |  |  |  |  |  |  |  |  |  |  | 
2 | CSEYRPKIKGEHPGLSIG [Hp-106] (Biotin-CSEYRPKIKGEHPGLSIG; listed as Homo sapiens) | induced secretion of IL-6 | enhanced secretion | not | increased secretion | increased secretion | increased secretion | + | − | − | + | + | + | activated resting allogeneic T cells | + | + | + | − | − | + | activated | IL-6 release ([1]; Example 1, synthetic B box peptides at 200 μg/ml, FIGS. 3D, E): specifically stimulated IL-6 release; surface expression of maturation markers [4]: did not significantly enhance; IL-8 [2]: +; IL-18 [2]: +; TNFα [2]: +; secretion of IL-2 [2, 6]: enhanced secretion; secretion of IL-5 [2, 6]: enhanced secretion; secretion of IL-8 [2, 6]: enhanced secretion; secretion of IL-18 [2, 6]: enhanced secretion; secretion of TNF-α [2, 6]: enhanced secretion; secretion of IL-10 [2, 7]: enhanced secretion
3 | DPNAPKRPPSAFFLFCSE (Biotin-DPNAPKRPPSAFFLFCSE; listed as Homo sapiens) [Hp-91] | enhanced the IL-6 secretion; also recorded: induced IL-6 secretion |  | not | increased secretion | increased secretion | increased secretion | + | − | − | + | + | + |  | + | + | + | − | − | + | activated | IL-8 [2]: −; IL-18 [2]: −; TNFα [2]: −; secretion of IL-1β [2, 6]: increased production; secretion of IL-2 [2, 6]: increased production; secretion of IL-5 [2, 6]: increased production; secretion of IL-8 [2, 6]: not; secretion of TNF-α [2, 6]: not
4 | HPDASVNFSEFSKKCSER (Biotin-HPDASVNFSEFSKKCSER; listed as Homo sapiens) [Hp-31] | induced secretion of IL-6 | enhanced the production | not | increased secretion | increased secretion | increased secretion | + | − | − | + | + | + |  | + | + | + | − | − | + | activated | secretion of IL-1β [2, 6]: enhanced the production; secretion of IL-2 [2, 6]: enhanced the production; secretion of IL-5 [2, 6]: enhanced the production; secretion of IL-10 [2, 7]: not
5 | SERWKTMSAKEKGKFEDM (Biotin-SERWKTMSAKEKGKFEDM; listed as Homo sapiens) [Hp-46] |  |  |  |  |  |  |  |  |  |  |  |  | did not show enhanced T cell stimulatory activity |  |  |  |  |  |  |  | 
6 | SIGDVAKKLGEMWNNTAA (Biotin-SIGDVAKKLGEMWNNTAA; listed as Homo sapiens) [Hp-121, control peptide] |  |  |  |  |  |  |  |  |  |  |  |  | did not show enhanced T cell stimulatory activity |  |  |  |  |  |  |  | CD40 expression ([4]; HMGB1-Bx 50 μg/ml): No altered expression; CD86 expression ([4]; HMGB1-Bx 50 μg/ml): No altered expression; MHC-II expression ([4]; HMGB1-Bx 50 μg/ml): No altered expression
7 | recombinant HMGB1: Human recombinant HMGB1 expressed in Escherichia coli; full-length sequence SEQ ID NO:1 |  |  |  |  |  |  |  |  |  |  |  |  |  |  |  |  |  |  |  |  | CD86 expression [5]: increases; CD40 expression ([5]; rB box 100 μg/ml): increases; CD54 expression ([5]; rB box 100 μg/ml): increases; CD83 expression ([5]; rB box 100 μg/ml): increases; CD206 (macrophage mannose receptor) expression ([5]; rB box 100 μg/ml): decrease; MHCII expression ([5]; rB box 100 μg/ml): increases
